Read-outs that look alike come from different tables or passages of the source.
What was measured:
[1] = tested on: 10 human tumor xenograft-derived cell suspensions or tumor cell lines of renal cancer; experiment: Clonogenic assay: ex vivo colony formation (anchorage independent growth) in semi-solid medium; type: cell-based; details: for IC50: Homo sapiens, mean across 10 renal cancer tumor models, test concentrations 0.0698 mM to 3 mM
Description: In the present study, mesalamine was characterized for their ability to inhibit anchorage independent growth and ex vivo colony formation of tumor cells in semi-solid medium. Mesalamine was tested against 10 human tumor xenograft-derived cell suspensions or tumor cell lines of renal cancer. Test concentrations ranged from 0.0698 mM to 3 mM.
Cell lines were routinely passaged one or twice weekly. All cells were grown at 37° C. in a humidified atmosphere with 5% CO2 in RPMI 1640 medium (Biochrom) supplemented with 10% (v/v) fetal calf serum and 0.1 mg/mL gentamicin. The percentage of viable cells was determined in a Neubauer-hemocytometer using trypan blue exclusion.
Tumor xenografts (patient-derived, as well as cell line-derived xenografts) were passaged as subcutaneous xenografts in NMRI nu/nu mice. At a tumor volume of 400-1000 mm^3 tumor-bearing mice were sacrificed and tumors were collected under sterile conditions without delay according to the relevant Oncotest SOPs and the relevant animal welfare guidelines published by the FELASA and the GV-SOLAS. Tumors were mechanically disaggregated and subsequently incubated with an enzyme cocktail consisting of collagenase type IV (41 U/mL), DNase I (125 U/mL), hyaluronidase type III (100 U/mL), and dispase II (1.0 U/mL) in RPMI 1640 medium (Life Technologies) at 37° C. for 60-120 minutes. Cells were passed through sieves of 100 μm and 40 μm mesh size (Cell Strainer, BD Falcon™), and washed with RPMI 1640 medium. The percentage of viable cells was determined in a Neubauer-hemocytometer using trypan blue exclusion. Aliquots of the cells were frozen down, and stored in liquid nitrogen. On each day of an experiment, a frozen aliquot of tumor cells was thawed and used for preparation of assay plates.
The clonogenic assay was carried out in a 96 well plate format using ultra low attachment plates. […] Cultures were incubated at 37° C. and 7.5% CO2 in a humidified atmosphere for 8 to 13 days and monitored closely for colony growth using an inverted microscope. […]

[2] = tested on: Human renal cell carcinoma cell line (A498); experiment: In vivo anti-tumor efficacy in xenograft model; parameters: species or system female athymic nude mice
Description: Healthy 10 female athymic nude mice were recruited for the donor cell inoculation. Animals were subcutaneously injected at flank region with 10 million A498 cells suspended in 200 μl of media and matrigel. Animals were monitored for solid tumor growth. […] Tumors were fragmented in to ˜30 mg size. […] Tumor bearing animals were selected from the experimental animals and grouped on basis of tumor size, into six groups containing 7 animals in each group. […] Group 3 received mesalamine at 250 mg/kg. [table] The tumor sizes were measured weekly twice from the date of tumor appearance till the end of the experiment. Tumor size was measured by digital vernier caliper (MITUTOYO) by measuring length (L=longest axis) and width (W=shortest axis). […] From the tumor volume data mean tumor volume and % tumor growth inhibition (% TGI) were determined.

[3] = G3, 250 mg/kg p.o. q.d.x21, Day 1
[4] = G3, 250 mg/kg p.o. q.d.x21, Day 6
[5] = G3, 250 mg/kg p.o. q.d.x21, Day 9
[6] = G3, 250 mg/kg p.o. q.d.x21, Day 13
[7] = G3, 250 mg/kg p.o. q.d.x21, Day 16
[8] = G3, 250 mg/kg p.o. q.d.x21, Day 20
[9] = G2, 20 mg/kg p.o. q.d.x21 (sub-therapeutic dose), Day 1
[10] = G2, 20 mg/kg p.o. q.d.x21 (sub-therapeutic dose), Day 6
[11] = G2, 20 mg/kg p.o. q.d.x21 (sub-therapeutic dose), Day 9
[12] = G2, 20 mg/kg p.o. q.d.x21 (sub-therapeutic dose), Day 13
[13] = G2, 20 mg/kg p.o. q.d.x21 (sub-therapeutic dose), Day 16
[14] = G2, 20 mg/kg p.o. q.d.x21 (sub-therapeutic dose), Day 20

With `Nc1ccc(O)c(C(=O)O)c1` [Mesalamine, 5-amino-2-hydroxybenzoic acid] as the compound, how does the IC50 ([1]; continuous exposure 8 to 13 days, read-out: mean relative IC50 value, inhibition of colony formation) read?
Its IC50 is 1210 µM.

What about the IC50 ([1]; read-out: second mean IC50 value printed in brackets after the mean relative IC50) of the same compound?
Its IC50 is 1260 µM.

What about the “Bottom plateaus of the concentration-effect curves of responding tumor models” value ([1]; responding tumor models) of the same compound?
Its value is 0 to 18%.

And the “Mean Tumor Growth Inhibition (% TGI)” value [2, 3]?
The value was 1.56%.

What about the “Mean Tumor Volume” value [2, 3] of the same compound?
Its value is 145.26 mm^3.

What about the “Mean Tumor Growth Inhibition (% TGI)” value [2, 4] of the same compound?
The value was 51.29%.

And the “Mean Tumor Volume” value [2, 4]?
The value was 161.68 mm^3.

And the “Mean Tumor Growth Inhibition (% TGI)” value [2, 5]?
Its value is 46.01%.

What about the “Mean Tumor Volume” value [2, 5] of the same compound?
The value was 250.41 mm^3.

And the “Mean Tumor Growth Inhibition (% TGI)” value [2, 6]?
Its value is 51.09%.

And the “Mean Tumor Volume” value [2, 6]?
The value was 301.82 mm^3.

What about the “Mean Tumor Growth Inhibition (% TGI)” value [2, 7] of the same compound?
The value was 47.87%.

What about the “Mean Tumor Volume” value [2, 7] of the same compound?
Its value is 501.10 mm^3.

And the “Mean Tumor Growth Inhibition (% TGI)” value [2, 8]?
Its value is 58.08%.

And the “Mean Tumor Volume” value [2, 8]?
The value was 536.78 mm^3.

And the “inhibiting tumor formation (anti-tumor efficacy by itself)” value ([2]; at the dose tested (250 mg/kg p.o. q.d.x21))?
Its value is “more than 50%”.

And the “anti-tumor efficacy compared with standard” value ([2]; mesalamine 250 mg/kg vs sunitinib 20 mg/kg, p.o. q.d.x21)?
Its value is “comparable to sunitinib”.

How did the “Mean Tumor Growth Inhibition (% TGI)” value [2, 9] turn out when `CCN(CC)CCNC(=O)c1c(C)[nH]c(/C=C2\C(=O)Nc3ccc(F)cc32)c1C` [Sunitinib] was run?
Its value is 1.47%.

And the “Mean Tumor Volume” value [2, 9]?
Its value is 145.40 mm^3.

And the “Mean Tumor Growth Inhibition (% TGI)” value [2, 10]?
The value was 47.31%.

What about the “Mean Tumor Volume” value [2, 10] of the same compound?
The value was 174.90 mm^3.

What about the “Mean Tumor Growth Inhibition (% TGI)” value [2, 11] of the same compound?
The value was 43.52%.

And the “Mean Tumor Volume” value [2, 11]?
Its value is 261.95 mm^3.

And the “Mean Tumor Growth Inhibition (% TGI)” value [2, 12]?
The value was 44.80%.

And the “Mean Tumor Volume” value [2, 12]?
The value was 340.62 mm^3.

And the “Mean Tumor Growth Inhibition (% TGI)” value [2, 13]?
The value was 53.39%.

What about the “Mean Tumor Volume” value [2, 13] of the same compound?
The value was 448.05 mm^3.

What about the “Mean Tumor Growth Inhibition (% TGI)” value [2, 14] of the same compound?
Its value is 50.78%.

And the “Mean Tumor Volume” value [2, 14]?
The value was 630.25 mm^3.

— patent publication US10220072B2, “Mesalamine for the treatment of cancer” (Cipla Limited, priority 2016, dated 2019)
